From publication PMC9756341 (Journal of the American Chemical Society, 2022)

How the values were obtained:
[1] = tested on: KLK6; assay: Enzyme kinetics to calculate KM, KLK6; format: biochemical, human; conditions: fluorogenic substrate, KLK6 1.5 nM, 2% DMSO, room temperature, 30 min, Michaelis-Menten model, triplicates
Procedure: (§1) Reagents were obtained from VWR, Sigma Aldrich, Sartorius, Fluorochem, AGTC, Novabiochem, TCI, Alfa Aesar, Iris Biotech, Thermofisher and Bachem. […]
(§2) (Code 7449-SE) and KLK8 (Code 2025-SE) were obtained from BioTechne. KLK6 was obtained from the group of Aubry Miller (DKFZ) and KLK7 was obtained from the group of Judith Clements (QUT).
The manufacturer’s recommended buffers were used with uPA and tPA but not KLK8. The KLK6 assay buffer was as follows: 50 mM Tris 150 mM NaCl, 1 mM EDTA, 0.05% Tween20, pH 7.5. The KLK7/8 buffer was as follows: 100 mM Na2PO4, 0.01% Tween20, pH 8.5. Fluorescence measurements were measured using an Envision plate reader. Fluorescence data was processed using Graphpad Prism 8. […]
(§3) 2-chlorotrityl chloride resin. […]
(§4) 380nm/440nm. The data was analysed using Graphpad Prism 8. The initial slopes of each plot were calculated and presented in a bar chart, which represents the substrate specificity of the KLK. […]
(§5) Enzyme kinetics to calculate KM. Purified fluorogenic substrates were measured in triplicates. […]
(§6) temperature, fluorescence was read once every 30 s for 30 min from an Envision plate reader at excitation/emission wavelengths of 380nm/440nm. The data was analysed with Graphpad Prism 8, using the Michaelis-Menten model.
(§7) Enzyme kinetics to calculate kobs/I. All ABPs and inhibitors were measured in triplicates. […]

[2] = tested on: KLK6; assay: Enzyme kinetics to calculate kobs/I, KLK6; format: biochemical, human; conditions: KLK6 1.5 nM, fluorogenic substrate 22 5 µM, 50 mM Tris 150 mM NaCl 1 mM EDTA 0.05% Tween20 pH 7.5, room temperature, read every 30 s for 30 min, ex/em 380/440 nm, pseudo first order kinetics, corrected by (1 + [S]/KM), triplicates
[3] = molecular target: T1, tPA (Homo sapiens, UniProt P00750); assay: Enzyme kinetics to calculate KM, tPA; format: biochemical; conditions: fluorogenic substrate, tPA 2 nM, 2% DMSO, room temperature, 30 min, Michaelis-Menten model, triplicates
T1 construct: purchased BioTechne 7449-SE
T1 sequence (P00750 36-562): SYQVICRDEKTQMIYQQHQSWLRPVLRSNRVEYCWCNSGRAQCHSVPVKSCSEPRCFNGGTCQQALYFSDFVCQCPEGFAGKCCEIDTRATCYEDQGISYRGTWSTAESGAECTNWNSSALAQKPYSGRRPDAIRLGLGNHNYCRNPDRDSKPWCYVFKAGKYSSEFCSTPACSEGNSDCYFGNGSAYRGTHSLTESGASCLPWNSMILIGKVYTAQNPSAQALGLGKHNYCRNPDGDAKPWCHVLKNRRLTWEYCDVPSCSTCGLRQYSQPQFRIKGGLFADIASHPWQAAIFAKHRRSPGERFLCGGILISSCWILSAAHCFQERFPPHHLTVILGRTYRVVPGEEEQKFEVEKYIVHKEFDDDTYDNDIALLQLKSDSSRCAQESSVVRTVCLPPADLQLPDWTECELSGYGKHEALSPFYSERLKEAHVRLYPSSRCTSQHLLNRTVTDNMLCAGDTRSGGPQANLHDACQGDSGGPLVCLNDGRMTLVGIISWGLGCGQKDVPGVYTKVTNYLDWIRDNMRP
Procedure: as §1, §2
The manufacturer’s recommended buffers were used with uPA and tPA but not KLK8. […]
(§8) Fluorescence measurements were measured using an Envision plate reader. Fluorescence data was processed using Graphpad Prism 8. […]
as §3
380nm/440nm. The data was analysed using Graphpad Prism 8. The initial slopes of each plot were calculated and presented in a bar chart, which represents the substrate specificity of the KLK. Error bars represent the standard deviation between the three replicates.
as §5, §6, §7
using a pseudo first order kinetics model. The observed rate of inhibition (kobs) was calculated by plotting a one-phase association. […]

[4] = molecular target: T2, uPA (Homo sapiens, UniProt P00749); assay: Enzyme kinetics to calculate KM, uPA; format: biochemical; conditions: fluorogenic substrate, uPA 2 nM, 2% DMSO, room temperature, 30 min, Michaelis-Menten model, triplicates
T2 construct: purchased BioTechne 1310-SE
Procedure: Reagents were obtained from VWR, Sigma Aldrich, Sartorius, Fluorochem, AGTC, Novabiochem, TCI, Alfa Aesar, Iris Biotech, Thermofisher and Bachem. 1H and 13C NMR spectra were measured on 400 MHz Bruker AV instruments. Cells were obtained directly from the ATCC. A Waters LC-MS system (2767 sample manager, 2998 UV detector and 3100 mass detector) was used for the analysis and purification of peptides. The analytical column was an Xbridge C18 4.6 mm x 100 mm. The preparative column used to purify the peptides was an Xbridge C18 19 mm x 100 mm. For analytical LC-MS, the flow rate was 1.2 mL/min, while preparative runs were at 20 mL/min. […]
All solvents contained an additive (0.1% formic acid). High resolution mass was recorded on a Micromass Autospec Premier through the Imperial College London mass spectrometry services. […]
as §8
Peptides were prepared using standard fluorenylmethoxycarbonyl (Fmoc) solid phase peptide synthesis. Reactions were monitored using the ninhydrin test. […]
as §4, §5

[5] = molecular target: T3, KLK8 (Homo sapiens, UniProt O60259); assay: Enzyme kinetics to calculate kobs/I, KLK8; format: biochemical; conditions: KLK8 1 nM, Boc-VPR-AMC 30 µM, 100 mM Na2PO4 0.01% Tween20 pH 8.5, room temperature, 30 min, pseudo first order kinetics, triplicates
T3 construct: Active recombinant FGFBP1 (Code 1593-FB), HSPG2 (Code 2364-ER), uPA (Code 1310-SE), tPA (Code 7449-SE) and KLK8 (Code 2025-SE) were obtained from BioTechne; purchased BioTechne 2025-SE
T3 sequence (O60259 33-260): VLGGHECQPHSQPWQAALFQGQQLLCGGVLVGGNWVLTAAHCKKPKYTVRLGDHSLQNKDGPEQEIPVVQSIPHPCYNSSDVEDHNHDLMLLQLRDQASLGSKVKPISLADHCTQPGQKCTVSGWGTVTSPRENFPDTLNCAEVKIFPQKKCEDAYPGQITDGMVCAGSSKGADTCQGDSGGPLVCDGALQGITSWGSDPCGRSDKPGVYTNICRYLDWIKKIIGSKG

[6] = tested on: endogenous active KLK6; conditions: Capan-2 conditioned media, streptavidin pulldown, KLK6 western blot
Procedure: Conditioned media was incubated with bABP 17 (10 μM) or DMSO for 2 h, and labeled proteins enriched on magnetic streptavidin-loaded beads, eluted, and analyzed by western blot against a KLK6 antibody.
Cell culture. Cells were cultured in their recommended culture media supplemented with 10% (v/v)
foetal bovine serum at 37 °C and 5% CO2.
Preparation of conditioned media. Cells were grown in standard growth media to 80% confluency in
a T175 flask. The medium was removed, and the cells were washed with serum-free, phenol-red free
RPMI. The cells were incubated with the same RPMI for 2 h. The medium was replaced once again
with serum-free, phenol-red free RPMI and the cells were incubated for 48 h. The condition medium
was collected and filtered through a 0.2 µm syringe filter. The medium was concentrated (25 mL to
0.75 mL) using a 3 kDa Mw cutoff spin filter to a final concentration of around 1 mg/mL. The protein
concentration was measured using a BioRad DCTM protein assay.
Pulldown experiments (western blot). Conditioned media was diluted with PBS to exactly 1 mg/mL.
200 µg of total protein was used per condition. The ABP or DMSO was added at a 1:100 dilution and
the samples were shaken at RT for 1 h. The proteins were precipitated using the MeOH/H2O/CHCl3
method. The pellet was washed twice with MeOH and dried in air for 5 min. The protein was
resuspended in 2% SDS in PBS to a concentration of 10 mg/mL. PBS was added to gradually dilute
the protein back to 1 mg/mL and the samples were centrifuged (17,000 g, 5 min). 5 µg of protein was
set aside as the “before pulldown” samples. Magnetic streptavidin beads were washed three times with
PBS. The rest of the protein was added into the beads and shaken at RT for 2 h. 5 µg of the supernatant
was set aside for analysis, while the rest was discarded. The beads were washed three times with 1%
SDS in PBS. […]
were boiled at 95 °C for 5 min. The proteins were analysed via SDS-PAGE and western blot analysis. […]
10 min, followed by 180 V for 60 min. Gels were then taken for western blot or in-gel fluorescence. […]

[7] = tested on: BxPC-3 cells; conditions: BxPC-3 cells (no active KLK6), 2 μM, 24 h, relative to DMSO
Procedure: (§9) Next, the effect of KLK6 inhibition on migration and invasion of Capan-2 cells was assessed using a Boyden chamber assay.
(§10) (13 µL per condition). Control conditions included puromycin (100 µg/mL), DMSO only, Sytox green only or DMSO + Sytox green. The final inhibitor concentrations ranged from 2 µM to 125 nM. The cells were placed into an Incucyte with the incubator set at 37 °C and 5% CO2. Phase and green fluorescence were analysed every 4 h for 5 days.
(§11) Invasion/migration assays. Cell invasion was measured using Corning Fluoroblok inserts following a modified procedure11. Fluoroblok inserts were placed into the wells of a 24-well plate. Matrigel was suspended to 300 µg/mL in coating buffer (0.01M Tris, 0.7% NaCl, pH 8). The matrigel suspension (100 µL) was added into the Fluoroblok insert and the plate was left at 37 °C for 2 h. A migration control (with no matrigel) was also included. Cells were trypsinised and resuspended in serum-free DMEM.
(§12) The leftover buffer in the chambers was decanted and 500 µL of cells (100,000 per well) were seeded into the apical chamber of the insert. DMEM with 10% FBS (750 µL) was added into the basal chamber as a chemoattractant. The plate was incubated at 37 °C and 5% CO2 for 24 h. The chambers were removed and placed into a new 24-well plate containing 50 µM of CellTracker CMHC dye in HBSS. The cells were stained for 0.5 h and the chamber was removed and placed into the previous plate containing DMEM with 10% FBS. The cells were imaged for blue fluorescence (ex/em = 375/460) using a Celena S inverted fluorescence microscope. Percentage invasion was calculated by quantifying the cell area

[8] = tested on: Capan-2 cells; conditions: Capan-2 cells (active KLK6), 2 μM, 24 h, relative to DMSO
Procedure: as §9, §10, §11, §12

[9] = tested on: Capan-2 cells; conditions: 0.13 to 2 μM, Incucyte live cell imaging every 4 h for 5 days, serum-free DMEM
Procedure: Incucyte assays for proliferation and toxicity
Proliferation was quantified using the Incucyte software by measuring percentage confluency. Sytox
green was used as a marker for cell death. Cell death was quantified by measuring total green
fluorescence of each well.
Incucyte (proliferation and toxicity) assays. Capan-2 cells were seeded in a sterile 96 well plate
(10,000 cells per well). The outermost wells were left empty to mitigate edge effects. Cells were grown
in growth media (10% FBS) overnight to adhere. The next day, the media was replaced with serum-free
DMEM (117 µL) containing Sytox green (250 nM) or a DMSO control.

[10] = Fluoroblok insert without Matrigel
[11] = Matrigel-coated Fluoroblok insert

Substance	KLK6 kobs/I [2] [M^–1 s^–1]	other results
Ac-DPhe-Ser(Z)-Dht-Arg-ACC [compound 23, purified fluorogenic substrate for KLK6]		Km [1]: 180 µM
Ac-Thr(Z)-Ala-Phg-Arg-ACC [compound 22, purified fluorogenic substrate for KLK6]		Km [1]: 86 µM
Yn–Asp(Chx)–Cha–His(Z)–Phg(4-guan)PP [compound 4]	54	
Yn–DPhe–Ser(Z)–Dht–DArgPP [compound 20]	0	
Yn–Thr(Z)–Ala–Dab(Z)–Phg(4-guan)PP [compound 8]	11	
Yn–Thr(Z)–Ala–Dht–Phg(4-guan)PP [compound 5]	250	
Yn–Thr(Z)–Ala–Phg–Phg(4-guan)PP [compound 1]	220	
Yn–Thr(Z)–Ala–Ser(Z)–Phg(4-guan)PP [compound 7]	43	
Yn–Thr(Z)–Ala–Tyr(Z)–Phg(4-guan)PP [compound 6]	7	
Yn–Thr(Z)–Cha–His(Z)–Phg(4-guan)PP [compound 3]	46	
Yn–Thr(Z)–Chg–His(Z)–Phg(4-guan)PP [compound 2]	30	
Z-GGR-AMC		Km [3]: 1200 µM; Km [4]: 190 µM
biotin–Ahx–DPhe–Cha–Dht–ArgPP [compound 16]	1300	KLK8 kobs/I [5]: 150 M^–1 s^–1
biotin–Ahx–DPhe–Cha–Dht–Phg(4-guanPP [compound 11]	210	KLK8 kobs/I [5]: 0 M^–1 s^–1
biotin–Ahx–DPhe–Cha–Ser(Ac)–Phg(4-guan)PP [compound 15]	150	KLK8 kobs/I [5]: 20 M^–1 s^–1
biotin–Ahx–DPhe–DLys–Dht–Phg(4-guan)PP [compound 14]	550	KLK8 kobs/I [5]: 73 M^–1 s^–1
biotin–Ahx–DPhe–Lys–Dht–Phg(4-guan)PP [compound 13]	250	
biotin–Ahx–DPhe–Ser(Z)–Dht–DArgPP [compound 18]	0	labeling of endogenous KLK6 [6]: no KLK6 labeling; effect on migration [7, 10]: no effect; effect on invasion [7, 11]: no effect; effect on migration [8, 10]: no effect; effect on invasion [8, 11]: no effect; effect on proliferation (percentage confluency) [9]: no effect
biotin–Ahx–DhPhe–Cha–Dht–Phg(4-guan)PP [compound 12]	140	KLK8 kobs/I [5]: 0 M^–1 s^–1
biotin–Ahx–Thr(Z)–Ala–Dht–Phg(4-guan)PP [compound 9]	220	
biotin–Ahx–Thr(Z)–Cha–Dht–Phg(4-guan)PP [compound 10]	420	KLK8 kobs/I [5]: 71 M^–1 s^–1
